Reference: ChEMBL document CHEMBL3826941, “Optimization of pyrazole-containing 1,2,4-triazolo-[3,4-b]thiadiazines, a new class of STAT3 pathway inhibitors” (Bioorg Med Chem Lett, 2016)
One block for each molecule: values may come before it. Activity calls are given as the source filed them. No cut-off for these calls is given here.

Experiments:
[1] = Antiproliferative activity against human CAL33 cells assessed as cell growth inhibition; format: functional, CAL-33
FaDu = assay: Antiproliferative activity against human FADU cells assessed as cell growth inhibition; format: functional
[2] = Half life in mouse liver microsomes; format: ADME
[3] = target: T1, Signal transducer and activator of transcription 1-alpha/beta (Homo sapiens) (UniProt P42224); assay: Inhibition of IFNgamma-induced STAT1 (unknown origin) at 50 uM
T1 sequence (whole entry): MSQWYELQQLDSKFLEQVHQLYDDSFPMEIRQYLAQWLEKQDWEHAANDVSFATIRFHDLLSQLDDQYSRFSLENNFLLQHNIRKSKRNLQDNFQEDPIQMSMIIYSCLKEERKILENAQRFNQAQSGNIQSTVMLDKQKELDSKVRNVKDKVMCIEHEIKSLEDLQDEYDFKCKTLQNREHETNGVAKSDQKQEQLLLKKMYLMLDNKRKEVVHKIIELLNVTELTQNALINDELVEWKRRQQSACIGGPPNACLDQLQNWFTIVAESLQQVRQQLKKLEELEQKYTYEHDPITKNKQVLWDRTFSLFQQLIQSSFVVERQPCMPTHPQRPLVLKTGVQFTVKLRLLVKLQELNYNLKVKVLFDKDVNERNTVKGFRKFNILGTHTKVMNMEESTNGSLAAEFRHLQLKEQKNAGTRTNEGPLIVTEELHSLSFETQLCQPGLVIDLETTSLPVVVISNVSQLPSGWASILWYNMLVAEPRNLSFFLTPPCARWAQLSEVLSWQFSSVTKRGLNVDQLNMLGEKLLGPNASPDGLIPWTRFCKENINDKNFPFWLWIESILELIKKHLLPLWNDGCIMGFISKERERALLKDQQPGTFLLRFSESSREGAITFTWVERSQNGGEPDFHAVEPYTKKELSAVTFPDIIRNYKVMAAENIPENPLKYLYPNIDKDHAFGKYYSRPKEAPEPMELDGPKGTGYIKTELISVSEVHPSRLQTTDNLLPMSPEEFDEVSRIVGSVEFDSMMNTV

[4] = Antiproliferative activity against human OSC19 cells assessed as cell growth inhibition; format: functional
[5] = Antiproliferative activity against human 686LN cells assessed as cell growth inhibition; format: functional
Liver microsome = assay: Half life in human liver microsomes; format: ADME
[6] = target: Signal transducer and activator of transcription 3 (Homo sapiens) (UniProt P40763); assay: Inhibition of STAT3 in IL6-induced human CAL33 cells assessed as inhibition of cyclin D1 gene levels at 3 to 100 uM by Western blot analysis; format: cell-based; conditions: CAL-33
[7] = target: Signal transducer and activator of transcription 3 (Homo sapiens) (UniProt P40763); assay: Inhibition of STAT3 phosphorylation at Tyr705 in IL6-induced human CAL33 cells assessed as phosphorylated STAT3 at Tyr705 to STAT3 ratio at 100 uM by Western blot analysis; format: cell-based; conditions: CAL-33
[8] = target: Signal transducer and activator of transcription 3 (Homo sapiens) (UniProt P40763); assay: Inhibition of STAT3 phosphorylation at Tyr705 in IL6-induced human CAL33 cells at 3 to 100 uM by Western blot analysis; format: cell-based; conditions: CAL-33
[9] = target: Signal transducer and activator of transcription 3 (Homo sapiens) (UniProt P40763); assay: Inhibition of STAT3 phosphorylation at Tyr705 in IL6-induced human CAL33 cells assessed as phosphorylated STAT3 at Tyr705 to STAT3 ratio at 30 uM by Western blot analysis; format: cell-based; conditions: CAL-33
[10] = target: Signal transducer and activator of transcription 3 (Homo sapiens) (UniProt P40763); assay: Inhibition of STAT3 in IL6-induced human CAL33 cells assessed as inhibition of Bcl-XL gene levels at 3 to 100 uM by Western blot analysis; format: cell-based; conditions: CAL-33
[11] = target: Signal transducer and activator of transcription 3 (Homo sapiens) (UniProt P40763); assay: Inhibition of STAT3 phosphorylation at Tyr705 in IL6-induced human CAL33 cells assessed as phosphorylated STAT3 at Tyr705 to STAT3 ratio at 10 uM by Western blot analysis; format: cell-based; conditions: CAL-33

Chain of Signal transducer and activator of transcription 3 (Homo sapiens) (P40763 whole entry): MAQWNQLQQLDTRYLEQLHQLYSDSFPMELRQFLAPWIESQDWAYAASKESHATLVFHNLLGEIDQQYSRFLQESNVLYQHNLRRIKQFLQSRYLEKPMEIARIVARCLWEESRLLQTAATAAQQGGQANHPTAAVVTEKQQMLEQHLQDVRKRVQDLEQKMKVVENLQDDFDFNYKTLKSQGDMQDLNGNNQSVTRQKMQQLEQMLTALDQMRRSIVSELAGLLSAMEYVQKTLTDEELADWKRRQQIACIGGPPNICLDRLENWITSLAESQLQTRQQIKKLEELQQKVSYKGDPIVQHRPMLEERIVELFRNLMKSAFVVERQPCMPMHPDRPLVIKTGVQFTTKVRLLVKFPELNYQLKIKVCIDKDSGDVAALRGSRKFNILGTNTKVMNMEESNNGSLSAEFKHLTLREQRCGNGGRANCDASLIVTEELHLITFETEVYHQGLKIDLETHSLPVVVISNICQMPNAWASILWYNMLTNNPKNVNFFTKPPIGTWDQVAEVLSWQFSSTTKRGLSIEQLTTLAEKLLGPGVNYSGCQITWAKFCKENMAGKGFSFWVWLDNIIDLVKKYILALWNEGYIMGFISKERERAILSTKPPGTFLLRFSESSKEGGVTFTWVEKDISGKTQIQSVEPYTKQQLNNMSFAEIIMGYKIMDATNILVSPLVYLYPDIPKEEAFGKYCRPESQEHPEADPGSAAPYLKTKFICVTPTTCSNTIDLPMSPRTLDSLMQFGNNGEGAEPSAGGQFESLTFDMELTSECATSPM

SMILES: CC1Sc2nnc(-c3cc(-c4ccc(F)cc4)n[nH]3)n2N=C1c1ccccc1 (stereo unspecified)
GI50 ([1]; Homo sapiens, CAL-33): 36.3 µM

SMILES: CC1(C)Sc2nnc(-c3[nH]nc4c3CCC4)n2N=C1c1ccc(Cl)c(Cl)c1
GI50 ([1]; Homo sapiens, CAL-33): > 50 µM

SMILES: COc1ccc(C2=Nn3c(nnc3-c3cc(-c4ccccc4)n[nH]3)SC2CC(C)C)cc1 (stereo unspecified)
GI50 ([1]; Homo sapiens, CAL-33): 0.5 µM

t1/2 [2]: 4 min
inhibition [3]: inactive
t1/2 (Liver microsome): 14 min
SMILES: Clc1ccc(C2=Nn3c(nnc3-c3[nH]nc4c3CCC4)SC2)cc1Cl
GI50 (FaDu): 14 µM
GI50 ([1]; Homo sapiens, CAL-33): 14 µM
GI50 [4]: 14 µM
GI50 [5]: 14 µM

SMILES: COCCC1Sc2nnc(-c3cc(-c4ccccc4)n[nH]3)n2N=C1c1ccc(OC)cc1 (stereo unspecified)
GI50 ([1]; Homo sapiens, CAL-33): 0.04 µM

SMILES: CC(C)CC1Sc2nnc(-c3[nH]nc4c3CCC4)n2N=C1c1ccc(Cl)c(Cl)c1 (stereo unspecified)
GI50 ([1]; Homo sapiens, CAL-33): 3.5 µM

SMILES: COc1ccc(C2=Nn3c(nnc3-c3cc(-c4ccc(F)cc4)n[nH]3)SC2C)cc1 (stereo unspecified)
GI50 ([1]; Homo sapiens, CAL-33): 29.5 µM

SMILES: Clc1ccc(C2=Nn3c(nnc3-c3[nH]nc4c3CCC4)SC2Cc2ccccc2)cc1Cl (stereo unspecified)
GI50 ([1]; Homo sapiens, CAL-33): 3.3 µM

SMILES: CC1Sc2nnc(-c3[nH]nc4c3CCC4)n2N=C1c1ccc(Cl)c(Cl)c1 (stereo unspecified)
GI50 ([1]; Homo sapiens, CAL-33): 1.9 µM

SMILES: COc1ccc(C2=Nn3c(nnc3-c3[nH]nc4c3CCC4)SC2C)cc1 (stereo unspecified)
GI50 (FaDu): 1.3 µM
GI50 ([1]; Homo sapiens, CAL-33): 0.18 µM
GI50 [4]: 3.1 µM
GI50 [5]: 0.88 µM

SMILES: COc1ccc(C2=Nn3c(nnc3-c3cc(-c4ccccc4)n[nH]3)SC2CCN)cc1 (stereo unspecified)
GI50 ([1]; Homo sapiens, CAL-33): 2.5 µM

inhibition [6]: Active
inhibition [7]: 99%
inhibition [8]: Active
inhibition [9]: 28%
t1/2 [2]: 10 min
inhibition [10]: Active
t1/2 (Liver microsome): 27 min
inhibition [11]: 15%
SMILES: CC1Sc2nnc(-c3cc(-c4ccccc4)n[nH]3)n2N=C1c1ccccc1 (stereo unspecified)
GI50 (FaDu): 32.7 µM
GI50 ([1]; Homo sapiens, CAL-33): 34.1 µM
GI50 [4]: 31.3 µM
GI50 [5]: 32.2 µM

SMILES: COc1ccc(C2=Nn3c(nnc3-c3cc(-c4ccc(Cl)cc4)n[nH]3)SC2C)cc1 (stereo in doubt; form 2)
GI50 [1]: 2.7 µM

SMILES: COc1ccc(C2=Nn3c(nnc3-c3[nH]nc4c3CCC4)SC2C(C)C)cc1 (stereo unspecified)
GI50 ([1]; Homo sapiens, CAL-33): 0.4 µM

SMILES: COc1ccc(C2=Nn3c(nnc3-c3cc(-c4ccc(Cl)cc4)n[nH]3)SC2C)cc1 (stereo in doubt; form 3)
GI50 [1]: 21.8 µM

SMILES: COc1ccc(C2=Nn3c(nnc3-c3cc(-c4ccc(Cl)cc4)n[nH]3)SC2C)cc1 (stereo in doubt; form 1) [listing 1 of 2 here]
inhibition [6]: Active
inhibition [7]: 99.7%
inhibition [8]: Active
inhibition [9]: 55%
inhibition [10]: Active
inhibition [11]: 21%

inhibition [3]: inactive
SMILES: Clc1ccc(C2=Nn3c(nnc3-c3cc(-c4ccccc4)[nH]n3)SC2)cc1
GI50 (FaDu): 27 µM
GI50 ([1]; Homo sapiens, CAL-33): 27 µM
GI50 [4]: 27 µM
GI50 [5]: 27 µM

SMILES: CC(C)C1Sc2nnc(-c3[nH]nc4c3CCC4)n2N=C1c1ccc(Cl)c(Cl)c1 (stereo unspecified)
GI50 ([1]; Homo sapiens, CAL-33): 8.2 µM

SMILES: COc1ccc(C2=Nn3c(nnc3-c3cc(-c4ccc(Cl)cc4)n[nH]3)SC2C)cc1 (stereo in doubt; form 1) [listing 2 of 2 here]
GI50 (FaDu): 8.4 µM
GI50 [1]: 2.2 µM
GI50 [4]: 14.9 µM
GI50 [5]: 17.4 µM
